pIC50: −log10 of the molar value.
Columns and labels:
Type in all cases: functional, cell-based
HepG2 = assay: Growth inhibition of human HepG2 cells after 24 hrs by MTT assay; details: HepG2, 24 h
MDA-MB-231 = assay: Growth inhibition of human MDA-MB-231 cells after 24 hrs by MTT assay; details: MDA-MB-231, 24 h
MCF7 = assay: Growth inhibition of human MCF7 cells after 24 hrs by MTT assay; details: MCF7, 24 h

| SMILES | pIC50 (HepG2) | pIC50 (MDA-MB-231) | pIC50 (MCF7) |
| --- | --- | --- | --- |
| COc1cc2oc3cc(OCCCCCCCO[N+](=O)[O-])cc(O)c3c(=O)c2cc1OC | 4.88 | 4.17 | 3.79 |
| COc1cc2oc3cc(OCCCO[N+](=O)[O-])cc(O)c3c(=O)c2cc1OC | 4.27 | 3.95 | < 3.70 |
| O=c1c2ccc(O)cc2oc2cc(OCCCCO[N+](=O)[O-])cc(O)c12 | 4.02 | 4.18 | < 3.70 |
| COc1ccc2oc3cc(OCCCCCCCO[N+](=O)[O-])cc(O)c3c(=O)c2c1 | 4.38 | 4.79 | 4.15 |
| O=c1c2cc(O)ccc2oc2cc(OCCCCO[N+](=O)[O-])cc(O)c12 | 4.65 | 4.03 | 3.84 |
| O=c1c2cc(O)ccc2oc2cc(OCCCCCO[N+](=O)[O-])cc(O)c12 | 5.00 | 4.35 | 4.04 |
| COc1ccc2oc3cc(OCCCO[N+](=O)[O-])cc(O)c3c(=O)c2c1 | 4.20 | 4.45 | 4.01 |
| O=c1c2ccccc2oc2cc(OCCO[N+](=O)[O-])cc(O)c12 | 4.69 | 4.04 | < 3.70 |
| O=c1c2cc(O)ccc2oc2cc(OCCCCCCCO[N+](=O)[O-])cc(O)c12 | 4.82 | 4.13 | 3.95 |
| COc1cccc2oc3cc(OCCCCCO)cc(O)c3c(=O)c12 | 4.63 | 4.39 | < 3.70 |
| Cc1ccc2c(=O)c3c(O)cc(OCCCO[N+](=O)[O-])cc3oc2c1 | 4.89 | 4.11 | 4.20 |
| O=c1c2cc(O)ccc2oc2cc(OCCCCCCO[N+](=O)[O-])cc(O)c12 | 4.94 | 4.73 | 4.27 |
| O=c1c2ccc(O)cc2oc2cc(OCCCCCCO[N+](=O)[O-])cc(O)c12 | 4.58 | 4.98 | < 3.70 |
| Cc1ccc2c(=O)c3c(O)cc(OCCCCCO[N+](=O)[O-])cc3oc2c1 | 5.53 | 4.51 | 4.40 |
| COc1cc2oc3cc(OCCCCCCO[N+](=O)[O-])cc(O)c3c(=O)c2cc1OC | 5.74 | 4.70 | 4.01 |
| O=c1c2cc(Br)ccc2oc2cc(OCCCCCO[N+](=O)[O-])cc(O)c12 | 5.58 | 4.96 | 4.14 |
| O=c1c2ccccc2oc2cc(OCCCO[N+](=O)[O-])cc(O)c12 | 4.91 | 4.08 | < 3.70 |
| COc1ccc2oc3cc(O)cc(O)c3c(=O)c2c1 | 4.03 | < 3.70 | < 3.70 |
| O=c1c2ccc(O)cc2oc2cc(OCCCCCCCO[N+](=O)[O-])cc(O)c12 | 4.12 | 4.29 | < 3.70 |
| O=c1c2cc(Cl)ccc2oc2cc(OCCO[N+](=O)[O-])cc(O)c12 | 4.37 | 4.48 | 4.13 |

| SMILES | pIC50 (HepG2) | pIC50 (MDA-MB-231) | pIC50 (MCF7) |
| --- | --- | --- | --- |
| O=c1c2cc(Cl)ccc2oc2cc(OCCCO[N+](=O)[O-])cc(O)c12 | 4.76 | 4.56 | 4.27 |
| COc1cccc2oc3cc(OCCCCCCO[N+](=O)[O-])cc(O)c3c(=O)c12 | 6.21 | 6.35 | 4.51 |
| O=[N+]([O-])OCCCCCCO | 4.28 | 4.04 | 4.05 |
| COc1cccc2oc3cc(O)cc(O)c3c(=O)c12 | 4.49 | 4.18 | < 3.70 |
| Cc1ccc2c(=O)c3c(O)cc(OCCCCCCCO[N+](=O)[O-])cc3oc2c1 | 5.06 | 4.25 | 4.37 |
| O=c1c2ccc(O)cc2oc2cc(OCCCO[N+](=O)[O-])cc(O)c12 | 3.93 | 4.08 | < 3.70 |
| COc1cccc2oc3cc(OCCO[N+](=O)[O-])cc(O)c3c(=O)c12 | 4.67 | 4.95 | 3.98 |
| O=[N+]([O-])OCCCCO | 4.04 | 3.80 | < 3.70 |
| COc1cc2oc3cc(OCCCCCO[N+](=O)[O-])cc(O)c3c(=O)c2cc1OC | 5.20 | 4.34 | < 3.70 |
| Cc1ccc2c(=O)c3c(O)cc(OCCCCCCO[N+](=O)[O-])cc3oc2c1 | 5.89 | 4.99 | 4.45 |
| COc1ccc2oc3cc(OCCCCCO[N+](=O)[O-])cc(O)c3c(=O)c2c1 | 4.48 | 5.03 | 4.27 |
| O=c1c2ccccc2oc2cc(OCCCCCCCO[N+](=O)[O-])cc(O)c12 | 5.28 | 4.36 | 3.81 |
| O=c1c2cc(Cl)ccc2oc2cc(OCCCCCO[N+](=O)[O-])cc(O)c12 | 5.27 | 5.11 | 4.60 |
| O=c1c2cc(Br)ccc2oc2cc(OCCCCCCCO[N+](=O)[O-])cc(O)c12 | 5.14 | 5.03 | 4.45 |
| O=c1c2ccccc2oc2cc(OCCCCO[N+](=O)[O-])cc(O)c12 | 5.18 | 4.25 | < 3.70 |
| Cc1ccc2c(=O)c3c(O)cc(OCCCCO[N+](=O)[O-])cc3oc2c1 | 4.98 | 4.20 | 4.32 |
| O=c1c2cc(O)ccc2oc2cc(OCCCO[N+](=O)[O-])cc(O)c12 | 4.48 | 3.87 | < 3.70 |
| COc1cc2oc3cc(OCCO[N+](=O)[O-])cc(O)c3c(=O)c2cc1OC | 4.04 | 3.89 | < 3.70 |
| O=c1c2cc(Cl)ccc2oc2cc(OCCCCCCCO[N+](=O)[O-])cc(O)c12 | 5.09 | 4.99 | 4.51 |
| COc1cc2oc3cc(O)cc(O)c3c(=O)c2cc1OC | 3.91 | < 3.70 | < 3.70 |

| SMILES | pIC50 (HepG2) | pIC50 (MDA-MB-231) | pIC50 (MCF7) |
| --- | --- | --- | --- |
| O=c1c2ccccc2oc2cc(OCCCCCCO[N+](=O)[O-])cc(O)c12 | 5.50 | 4.63 | 4.03 |
| O=c1c2cc(Cl)ccc2oc2cc(OCCCCCCO[N+](=O)[O-])cc(O)c12 | 5.22 | 5.01 | 4.88 |
| O=c1c2cc(Br)ccc2oc2cc(OCCCCO[N+](=O)[O-])cc(O)c12 | 5.00 | 4.95 | 4.37 |
| O=c1c2cc(Br)ccc2oc2cc(OCCCO[N+](=O)[O-])cc(O)c12 | 4.86 | 4.36 | < 3.70 |
| O=[N+]([O-])OCCCO [ABRUCOMSTAT] | 3.95 | < 3.70 | < 3.70 |
| COc1ccc2oc3cc(OCCCCO[N+](=O)[O-])cc(O)c3c(=O)c2c1 | 4.28 | 4.65 | 4.08 |
| O=c1c2ccccc2oc2cc(OCCCCCO[N+](=O)[O-])cc(O)c12 | 5.39 | 4.39 | < 3.70 |
| O=c1c2ccc(O)cc2oc2cc(O)cc(O)c12 | < 3.70 | < 3.70 | < 3.70 |
| O=c1c2cc(Cl)ccc2oc2cc(OCCCCO[N+](=O)[O-])cc(O)c12 | 5.00 | 4.95 | 4.37 |
| COc1ccc2oc3cc(OCCCCCCO[N+](=O)[O-])cc(O)c3c(=O)c2c1 | 4.87 | 5.52 | 4.39 |
| O=c1c2cc(O)ccc2oc2cc(O)cc(O)c12 | < 3.70 | < 3.70 | < 3.70 |
| COc1cccc2oc3cc(OCCCCCCCO[N+](=O)[O-])cc(O)c3c(=O)c12 | 5.28 | 5.37 | 4.27 |
| COc1cccc2oc3cc(OCCCO[N+](=O)[O-])cc(O)c3c(=O)c12 | 4.87 | 5.01 | 3.99 |
| COc1cccc2oc3cc(OCCCCO[N+](=O)[O-])cc(O)c3c(=O)c12 | 4.99 | 5.20 | 4.20 |
| COc1cc2oc3cc(OCCCCO[N+](=O)[O-])cc(O)c3c(=O)c2cc1OC | 4.67 | 4.06 | < 3.70 |
| O=c1c2cc(Br)ccc2oc2cc(OCCCCCCO[N+](=O)[O-])cc(O)c12 | 5.92 | 4.82 | 4.36 |
| O=c1c2ccc(O)cc2oc2cc(OCCO[N+](=O)[O-])cc(O)c12 | 3.80 | 3.97 | < 3.70 |
| O=c1c2ccc(O)cc2oc2cc(OCCCCCO[N+](=O)[O-])cc(O)c12 | 4.21 | 4.38 | 3.95 |

From ChEMBL document CHEMBL4152189, “Incorporation of nitric oxide donor into 1,3-dioxyxanthones leads to synergistic anticancer activity” (Eur J Med Chem, 2018)
